From US8039644B2, “Hydrogenated benzo (C) thiophene derivatives as immunomodulators” (Actelion Pharmaceuticals Ltd., priority 2005, dated 2011) come the findings set out here.

In this assay the target is recombinant human S1P1 receptor (Homo sapiens, UniProt P21453). The experiment in a line: GTPγS assay to determine EC50 values. Format: biochemical. The settings on record: GTPγS binding, membrane preparations of CHO cells expressing recombinant human S1P1 receptor. As to the method: GTPγS Assay to Determine EC50 Values
Chain of recombinant human S1P1 receptor (P21453 whole entry): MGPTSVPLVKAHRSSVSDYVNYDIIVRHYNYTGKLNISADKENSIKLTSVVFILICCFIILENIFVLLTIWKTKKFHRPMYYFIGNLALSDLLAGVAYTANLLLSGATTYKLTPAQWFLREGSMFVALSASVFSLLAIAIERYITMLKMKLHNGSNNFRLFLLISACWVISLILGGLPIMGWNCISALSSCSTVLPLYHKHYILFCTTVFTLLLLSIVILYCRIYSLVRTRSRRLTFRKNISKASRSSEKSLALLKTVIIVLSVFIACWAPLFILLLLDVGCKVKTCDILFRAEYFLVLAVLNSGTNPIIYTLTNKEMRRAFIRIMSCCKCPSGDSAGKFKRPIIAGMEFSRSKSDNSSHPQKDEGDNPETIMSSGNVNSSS
GTPγS binding assays are performed in 96 well microtiter plates (Nunc, 442587) in a final volume of 200 μl, using membrane preparations of CHO cells expressing recombinant human S1P1 receptor. Assay conditions are 20 mM Hepes (Fluka, 54461), 100 mM NaCl (Fluka, 71378), 5 mM MgCl2 (Fluka, 63064), 0.1% BSA (Calbiochem, 126609), 1 μM GDP (Sigma, G-7127), 2.5% DMSO (Fluka, 41644), 50 pM ^35S-GTPγS (Amersham Biosciences, SJ1320). The pH is 7.4. Test compounds are dissolved and diluted in 100% DMSO and pre-incubated at room temperature for 30 min in 150 μl of the above assay buffer, in the absence of ^35S-GTPγS. After addition of 50 μl of ^35S-GTPγS, the assay is incubated for 1 h at rt. The assay is terminated by transfer of the reaction mixture to a Multiscreen plate (Millipore, MAHFC1H60) using a cell harvester from Packard Biosciences, and the plates are washed with ice-cold 10 mM Na2HPO4/NaH2PO4 (70%/30%), dried, sealed at the bottom and, after addition of 25 μl MicroScint20 (Packard Biosciences, order#6013621), sealed on the top. Membrane-bound ^35S-GTPγS is measured with a TopCount from Packard Biosciences.
EC50 is the concentration of agonist inducing 50% of the maximal specific ^35S-GTPγS binding. Specific binding is determined by subtracting non-specific binding from maximal binding. Maximal binding is the amount of cpm bound to the Multiscreen plate in the presence of 10 μM of S1P. Non-specific binding is the amount of binding in the absence of an agonist in the assay.
The EC50 values were determined according to the method described above.
As usually defined, the EC50 is the concentration giving half of the maximal effect. As for `COc1cc(CCC(=O)c2sc(C)c3c2CCC(C)(C)C3)cc(Cl)c1OCC(O)CNC(=O)CO` (stereo not shown) [Example 149], the EC50 was determined as 5.1 nM.

As for `Cc1cc(-c2noc(-c3scc4c3CCC3(CC3)C4)n2)cc(C)c1OCC(O)CNC(=O)CO` (stereo not shown) [Example 457], the EC50 is 6.2 nM.

As to `CCc1sc(C(=O)CCc2ccc(OCCNS(C)(=O)=O)cc2OC)c2c1CC(C)(C)CC2` [Example 230], the EC50 came to 2.9 nM.

Consider `CCc1sc(C(=O)CCc2cc(C)c(OCCNC(C)C)c(C)c2)c2c1CC(C)(C)CC2` [Example 114], for which the concentration giving a half-maximal response (EC50) came to 4.1 nM.

Take `CCc1sc(C(=O)CNc2ccccc2OC)c2c1CC(C)(C)CC2` [Example 378]: the EC50 is 6.1 nM.

As for `CCc1cc(CCC(=O)c2sc(CC)c3c2CCC(C)(C)C3)cc(C)c1CCCNC(=O)CCNC` [Example 351], the EC50 was 3.4 nM.

On to `Cc1cc(CCC(=O)c2sc(C)c3c2CCC(C)(C)C3)cc(C)c1OCC(O)CNCCC(=O)O` (stereo not shown) [Example 41], for which the EC50 came out at 2.8 nM.

On to `CCc1sc(C(=O)CCc2cc(C)c(OCC(O)CN)c(C)c2)c2c1CC(C)(C)CC2` (stereo not shown) [Example 271], for which the EC50 is 1.7 nM.

Consider `CCc1sc(C(=O)CCc2cc(C)c(OCC(O)CNCCC(=O)O)c(C)c2)c2c1CC(C)(C)CC2` (stereo not shown) [Example 80], for which the EC50 was found to be 0.6 nM.

Regarding `CCc1sc(C(=O)CCc2cc(C)c(OCC(O)COC)c(C)c2)c2c1CC(C)(C)CC2` (stereo not shown) [Example 71], the EC50 turned out to be 5.9 nM.

Take `CCCc1sc(C(=O)CCc2cc(C)c(OC[C@H](O)CO)c(C)c2)c2c1CC(C)(C)CC2` [Example 414]: the EC50 stood at 4.2 nM.

Regarding `CCc1sc(C(=O)CCc2ccc(S(=O)(=O)NCCN)cc2)c2c1CC(C)(C)CC2` [Example 356, N-(2-amino-ethyl)-4-[3-(3-ethyl-5,5-dimethyl-4,5,6,7-tetrahydro-benzo[c]thiophen-1-yl)-3-oxo-propyl]-benzenesulfonamide], the EC50 was 8 nM.

As to `CCc1sc(C(=O)/C=C/c2cc(C)c(O)c(C)c2)c2c1CC(CC)(CC)CC2` [Example 423, 3-(4-Hydroxy-3,5-dimethyl-phenyl)-1-(3,5,5-triethyl-4,5,6,7-tetrahydro-benzo[c]thiophen-1-yl)-propenone], the EC50 came to 7.6 nM.

Consider `Cc1cc(CCC(=O)c2sc(C(F)(F)F)c3c2CCC(C)(C)C3)cc(C)c1NCC(O)CO` (stereo not shown) [Example 501, 3-[4-(2,3-Dihydroxy-propylamino)-3,5-dimethyl-phenyl]-1-(5,5-dimethyl-3-trifluoromethyl-4,5,6,7-tetrahydro-benzo[c]thiophen-1-yl)-propan-1-one], for which the EC50 turned out to be 2.6 nM.

With `CCc1sc(C(=O)CCc2ccc(OCCO)cc2OC)c2c1CC(C)(C)CC2` [Example 210], the EC50 came out at 1.1 nM.

Turning to `CCc1sc(C(=O)CCc2cc(C)c(OCC(O)CNCCN)c(C)c2)c2c1CC(C)(C)CC2` (stereo not shown) [Example 79], the EC50 is 3.7 nM.

`Cc1cc(CCC(=O)c2sc(C)c3c2CCC(C)(C)C3)cc(C)c1OC[C@@H](O)CO` [Example 27]: the EC50 came to 2.4 nM.

For `CCc1sc(C(=O)CCc2cc(C)c(OCC(O)CN3CC(C(=O)O)C3)c(C)c2)c2c1CC(C)(C)CC2` (stereo not shown) [Example 296], the EC50 amounted to 1 nM.

Consider `CCc1sc(C(=O)CCc2cc(C)c(OCC(O)CNC(=O)CN)c(Cl)c2)c2c1CC(C)(C)CC2` (stereo not shown) [Example 312], for which the half-maximal effective concentration (EC50) turned out to be 0.8 nM.

Take `CCc1sc(C(=O)CCc2cc(Cl)c(OCCNC(=O)CNC)c(OC)c2)c2c1CC(C)(C)CC2` [Example 247]: the EC50 was determined as 3.1 nM.

`CCc1cc(CCC(=O)c2sc(C(F)(F)F)c3c2CCC(C)(C)C3)cc(C)c1OCC(O)CNC(=O)CCO` (stereo not shown) [Example 489]: the EC50 was 2.9 nM.

For the molecule `CCc1sc(C(=O)CCc2cc(C)c(OCCO)c(C)c2)c2c1CC(C)(C)CC2` [Example 66], the EC50 is 2.5 nM.

As to `Cc1cc(C)cc(NCC(=O)c2sc(C(F)(F)F)c3c2CCC(C)(C)C3)c1` [Example 517], the EC50 came to 9.7 nM.

As to `CCc1sc(C(=O)CCc2cc(C)c(OCC(O)CNC(CO)CO)c(C)c2)c2c1CC(C)(C)CC2` (stereo not shown) [Example 77], the EC50 was 1.8 nM.

Regarding `Cc1cc(-c2noc(-c3scc4c3CCC(C)(C)C4)n2)cc(C)c1OCC(O)CNC(=O)CO` (stereo not shown) [Example 129], the EC50 amounted to 3.8 nM.

Consider `CCc1sc(C(=O)CCc2ccc(OCCCNS(C)(=O)=O)cc2OC)c2c1CC(C)(C)CC2` [Example 269], for which the EC50 was found to be 1.8 nM.

In the case of `COc1cc(CCC(=O)c2sc(C)c3c2CCC(C)(C)C3)cc(Cl)c1OCC(O)CNCCC(=O)O` (stereo not shown) [Example 62], the EC50 came to 5.9 nM.

With `CCc1cc(CCC(=O)c2sc(CC)c3c2CCC(C)(C)C3)cc(C)c1CCCN` [Example 339, 3-[4-(3-Amino-propyl)-3-ethyl-5-methyl-phenyl]-1-(3-ethyl-5,5-dimethyl-4,5,6,7-tetrahydro-benzo[c]thiophen-1-yl)-propan-1-one], the EC50 was found to be 1.8 nM.
